These results are taken from US4097582A, “6',2-(2'-Arylchromonyl) propionic acids, and analgesic and anti-inflammatory derivatives thereof” (Lipha, Lyonnaise Industrielle Pharmaceutique, priority 1974, dated 1978).

Where a name gives a salt, the structure may show the parent alone. Read-outs that look alike come from different tables or passages of the source.

The conditions of data set [1]: recently discovered; cited from earlier work.
Data set [2] deals with acetic test upon mice. Description: acetic test upon mice, analgesic effect (Siegmund method as modified by Koster, Anderson and Debeer). Type of data set: in vivo. Particulars: Mus musculus. The text has this:
The compounds are identified by the numbers of the examples.

The subject of data set [3] is carrageenin-induced oedema. Kind of data set: carrageenin-induced oedema test upon rats, anti-inflammatory effect (Winter et al.). To be noted: Rattus norvegicus, phenylbutazone control, read-out: Carrageenin (A.D. 30, mg/kg). Type of data set: in vivo. How it is done:
(§1) The pharmacological, analgesic and anti-inflammatory effectiveness and the slightly ulcerating effect of the propionic acids and their functional derivatives was determined by various methods. The compounds are identified by the numbers of the examples.
The anti-inflammatory effect of the compounds claimed was established, inter alia, by the carrageenin-induced oedema test upon rats (Winter et al. -- Proc. Soc. Exp. Biol. Med. 1962, Vol. III, pages 544 and 547). The results obtained with certain of the compounds of the invention are given below in Table II (phenylbutazone was used as a control).
(The carrageenan paw model is a standard test of acute inflammation.)

Data set [4] concerns ulcers. Kind of data set: aggravation of ulcers already caused in rats (Shay et al.), ulcerating effect. Type of data set: in vivo. The procedure:
as §1
The compounds were compared with phenylbutazone in order to evaluate their ulcerating effect. The method used was that of aggravating ulcers which has already been caused in rats by the procedure described by Shay et al (Gastroenterology, 1945, Vol. 5, pages 43 to 61).

The nature of data set [5]: observations made during clinical trials. Type of data set: in vivo, human (patients: Mrs. / Mr.). How it is done: Pharmaceutical compositions comprising a compound of the invention as their active ingredient and a physiologically acceptable, solid or liquid pharmaceutical excipient or diluent enable the active ingredient to be administered in daily doses of from 20 to 1000 mg. Among the observations made during clinical trials with the compound of Example 13 the following may be mentioned:
Among the observations made during clinical trials of the compound of Example 22 may be mentioned the following five: […]

The mark [6] stands for this setting: mice, acetic test, aspirin control, read-out: ED50.
Setting [7] is: A person, cervical pain from arthritic spine, four 100 mg tablets per day, 8 days.
Where [8] appears, read: A person, pseudoarthrosis of the knee, five 100 mg tablets per day, 8 days.
Where [9] appears, read: A person, stripping of varicose veins, six 100 mg tablets per day, 5 days.
Setting [10] is: person one, sciatica, four 100 mg tablets per day, 10 days.
Setting [11] is: person two, post-fracture gonarthrosis, four 100 mg tablets per day, 10 days.
Where [12] appears, read: A person, inflammation of arteries in lower limbs, four 150 mg tablets per day, five days.
Where [13] appears, read: A person, lumbar arthrosis, six 150 mg tablets per day, 10 days.
[14] abbreviates: A person, removal of left knee-cap, six 150 mg tablets per day, 5 days.
The mark [15] stands for this setting: A person, very intense lumbar pain, four 150 mg tablets per day, ten days.

With `O=C(O)Cc1ccc2oc(-c3ccccc3)cc(=O)c2c1` [6-(2-Phenylchromonyl) acetic acid], the choleretic activity result in data set [1] is “choleretic activity”.

`CC(=O)Oc1ccccc1C(=O)O` [Aspirin, reference compound] showed an ED50 in data set [2] of 130 mg/kg.

Turning to `CC(C(=O)O)c1ccc2oc(-c3cccs3)cc(=O)c2c1` (stereo not drawn) [Example 13, 2-[2'-(α-Thienyl)-6'-chromonyl]propionic acid], the ED50 in data set [2] (setting [6]) amounted to 1.5 mg/kg. The ED30 in data set [3] turned out to be 10 mg/kg. Further, the “Aggravation of ulceration, Coefficient” value in data set [4] (dose 300 mg/kg body weight/PO) came to 50. For the same compound, in data set [5] (setting [7]), the analgesic effect result is recorded as “good” and the “movement in the neck” value is listed as “restored movement to normal amplitude in the neck unaccompanied by pain”. Further, in data set [5] (setting [8]), the antiinflammatory effect entry is “very good”, the “duration of relief of pain” value is given as “three” and the relief of pain result is “good”. For the same compound, in data set [5] (setting [9]), the duration of relief worked out at 3 h, the relief result is listed as “complete” and the “time after administration until relief apparent” value is listed as “less than 30 minutes”. In data set [5] (A person, five 100 mg tablets per day, 8 days), the tolerance entry was “perfect”. Also, the tolerance entry in data set [5] (A person, four 100 mg tablets per day, 8 days) is recorded as “very good”. Besides, the tolerance entry in data set [5] (A person, six 100 mg tablets per day, 5 days) is given as “very good”. In addition, in data set [5] (setting [10]), the analgesic effect entry was “excellent” and the “improvement in the results of the Lasegue test” value is “from 45 to 75”. Further, the tolerance result in data set [5] (person one, four 100 mg tablets per day, 10 days) is listed as “complete”. In data set [5] (setting [11]), the analgesic effect entry is “very positive”, the knee flexion improvement entry was “from 15 to 25”, the “results on the knee” value is listed as “excellent” and the “temperature of the knee” value is “returned to its normal temperature”. The tolerance result in data set [5] (person two, four 100 mg tablets per day, 10 days) is “good”.

For `CC(C(=O)O)c1ccc2oc(-c3ccccc3)cc(=O)c2c1` (stereo not shown) [Example 22, 2-(6'-Flavonyl)propionic acid], the ED50 in data set [2] (setting [6]) is 9 mg/kg. Further, in data set [3], the ED30 is 65 mg/kg. The “Aggravation of ulceration, Coefficient” value in data set [4] (dose 300 mg/kg body weight/PO) is on record as 60. For the same compound, in data set [5] (setting [12]), the duration of relief result is on record as “more than three”, the relief result is listed as “very distinct relief” and the “time after administration until relief” value is on record as “less than 30 minutes”. In data set [5] (setting [13]), the duration of relief result is reported as “three”, the functional improvement result is “appreciable functional improvement” and the “time after administration until relief” value was “thirty”. Also, in data set [5] (A person, pain in neck and arm, four 150 mg tablets per day, eight days), the “results against pain and signs of inflammation” value is on record as “very good”. Moreover, in data set [5] (setting [14]), the duration of relief is above 3 h, the relief result was “complete” and the “time until relief appears” value was “less than 30 minutes”. Also, in data set [5] (setting [15]), the antalgic effect result is recorded as “excellent”, the “distance which the patient could move their fingertips towards the ground” value is on record as “from 40 to 5” and the improvement result is “very pronounced improvement”. The tolerance result in data set [5] (A person, four 150 mg tablets per day, eight days) is “complete”. Further, the tolerance result in data set [5] (A person, four 150 mg tablets per day, five days) is “satisfactory”. In data set [5] (A person, four 150 mg tablets per day, ten days), the tolerance entry is “complete”. In data set [5] (A person, six 150 mg tablets per day, 5 days), the tolerance result was “good”. Besides, the tolerance entry in data set [5] (A person, six 150 mg tablets per day, 10 days) is given as “complete”.

As to `CCCOC(=O)C(C)c1ccc2oc(-c3ccccc3)cc(=O)c2c1` (stereo not shown) [Example 25, Propyl 2-(2'-phenyl-6'-chromonyl)propionate], in data set [2] (setting [6]), the ED50 is 6 mg/kg. Besides, the ED30 in data set [3] came out at 85 mg/kg.

On to `COC(=O)C(C)c1ccc2oc(-c3cccs3)cc(=O)c2c1` (stereo not drawn) [Example 29, Methyl 2-[2'-(α-thienyl)-6'-chromonyl]propionate], for which, in data set [2] (setting [6]), the ED50 worked out at 2.3 mg/kg. The ED30 in data set [3] came to 37 mg/kg.

As for `CC(C(=O)OCCN1CCOCC1)c1ccc2oc(-c3cccs3)cc(=O)c2c1` (stereo not drawn) [Example 32, The acid oxalate of β-morpholinoethyl-2-[2'-(α-thienyl)-6'-chromonyl]propionate], the ED50 in data set [2] (setting [6]) stood at 4.6 mg/kg.

Turning to `CCCCC1C(=O)N(c2ccccc2)N(c2ccccc2)C1=O` [Phenylbutazone, reference compound], the ED30 in data set [3] is 50 mg/kg. Moreover, in data set [4] (dose 200 mg/kg body weight/PO), the “Aggravation of ulceration, Coefficient” value is 100.

A word on the ED50: it is the midpoint of the dose-response relation.
